Test [1] has as its target Death-associated protein kinase 3 (Homo sapiens) (UniProt O43293). Kind of test: Selectivity interaction (Kinase panel (Z-LYTE Assay)) EUB0001632a DAPK3. The note with it: at 10 µM.
Test [2] has as its target T1, Uncharacterized serine/threonine-protein kinase SBK3 (Homo sapiens) (UniProt P0C264).
T1 sequence (whole entry): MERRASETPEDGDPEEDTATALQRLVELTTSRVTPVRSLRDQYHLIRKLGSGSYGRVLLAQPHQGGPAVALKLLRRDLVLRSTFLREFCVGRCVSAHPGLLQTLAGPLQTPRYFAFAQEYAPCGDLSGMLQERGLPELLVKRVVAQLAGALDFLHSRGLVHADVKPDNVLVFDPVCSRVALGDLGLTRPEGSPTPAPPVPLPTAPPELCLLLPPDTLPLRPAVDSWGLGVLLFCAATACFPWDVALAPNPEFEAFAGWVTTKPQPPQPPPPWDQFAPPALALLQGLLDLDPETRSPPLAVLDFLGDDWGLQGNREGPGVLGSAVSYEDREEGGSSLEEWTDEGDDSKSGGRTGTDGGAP
Nature of the test: Selectivity interaction (KinomeScan (DiscoverX)) EUB0000595a SBK3. The note with it: at 10 µM.

Test [3] addresses T2, Tyrosine-protein kinase ITK/TSK (Homo sapiens) (UniProt Q08881).
T2 sequence (whole entry): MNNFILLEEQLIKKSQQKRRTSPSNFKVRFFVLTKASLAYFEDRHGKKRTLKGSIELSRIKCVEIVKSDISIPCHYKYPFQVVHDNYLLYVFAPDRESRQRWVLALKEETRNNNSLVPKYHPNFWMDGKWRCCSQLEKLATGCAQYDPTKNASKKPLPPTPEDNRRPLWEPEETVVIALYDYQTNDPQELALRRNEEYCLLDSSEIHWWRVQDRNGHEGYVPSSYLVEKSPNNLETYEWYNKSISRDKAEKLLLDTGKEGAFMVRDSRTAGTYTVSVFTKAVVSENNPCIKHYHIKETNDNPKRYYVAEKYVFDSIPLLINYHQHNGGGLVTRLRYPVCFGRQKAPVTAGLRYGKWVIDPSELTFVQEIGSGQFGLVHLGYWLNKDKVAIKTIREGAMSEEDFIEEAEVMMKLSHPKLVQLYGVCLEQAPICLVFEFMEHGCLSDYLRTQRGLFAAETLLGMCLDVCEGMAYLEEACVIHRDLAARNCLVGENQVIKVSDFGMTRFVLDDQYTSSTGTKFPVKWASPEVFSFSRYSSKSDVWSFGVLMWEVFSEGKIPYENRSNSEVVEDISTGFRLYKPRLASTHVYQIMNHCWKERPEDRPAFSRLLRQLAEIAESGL
The note with it: at 10 µM.

Test [4] in a line: Selectivity interaction (Eurofins CEREP Diversity Profile (receptors and ion channels)) EUB0000279b CRH. The settings on record: at 10 µM.
Test [5] deals with Dual specificity protein kinase CLK2 (Homo sapiens, UniProt P49760). Kind of test: Selectivity interaction (Enzymatic assay) EUB0001550a CLK2.
The target in test [6] is Calcium/calmodulin-dependent protein kinase type II subunit beta (Homo sapiens) (UniProt Q13554). The note with it: at 10 µM.
Test [7] has as its target Misshapen-like kinase 1 (Homo sapiens, UniProt Q8N4C8). Kind of test: Selectivity interaction (Kinase screening (Nanosyn)) EUB0000604a MINK1.
Test [8] deals with Proto-oncogene tyrosine-protein kinase receptor Ret (Homo sapiens, UniProt P07949). Nature of the test: Selectivity interaction (Kinase panel (Invitrogen)) EUB0000639a RET. The note with it: at 200 nM.
The target in test [9] is T3, cGMP-dependent protein kinase 1 (Homo sapiens) (UniProt Q13976).
T3 sequence (whole entry): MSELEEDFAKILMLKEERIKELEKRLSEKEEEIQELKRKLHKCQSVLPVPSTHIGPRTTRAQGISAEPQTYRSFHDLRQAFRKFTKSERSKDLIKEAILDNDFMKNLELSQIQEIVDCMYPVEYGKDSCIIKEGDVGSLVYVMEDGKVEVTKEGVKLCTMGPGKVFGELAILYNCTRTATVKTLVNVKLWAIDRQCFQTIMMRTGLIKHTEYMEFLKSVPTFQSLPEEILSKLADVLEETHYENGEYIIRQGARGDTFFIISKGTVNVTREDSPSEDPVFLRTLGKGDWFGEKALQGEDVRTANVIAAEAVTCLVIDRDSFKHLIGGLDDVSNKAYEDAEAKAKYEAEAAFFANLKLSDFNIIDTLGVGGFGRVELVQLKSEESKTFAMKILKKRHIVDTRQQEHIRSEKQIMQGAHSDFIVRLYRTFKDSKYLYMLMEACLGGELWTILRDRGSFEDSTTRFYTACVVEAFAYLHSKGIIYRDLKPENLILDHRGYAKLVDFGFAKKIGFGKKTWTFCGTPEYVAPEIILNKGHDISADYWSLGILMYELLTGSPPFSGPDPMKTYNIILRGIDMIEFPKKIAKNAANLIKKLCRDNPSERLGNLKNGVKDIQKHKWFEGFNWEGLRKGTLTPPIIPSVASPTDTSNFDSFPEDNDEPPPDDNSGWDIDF
Kind of test: Selectivity interaction (KinomeScan (DiscoverX)) EUB0000045b PRKG1.

The target in test [10] is T4, Protein kinase C iota type (Homo sapiens) (UniProt P41743).
T4 sequence (whole entry): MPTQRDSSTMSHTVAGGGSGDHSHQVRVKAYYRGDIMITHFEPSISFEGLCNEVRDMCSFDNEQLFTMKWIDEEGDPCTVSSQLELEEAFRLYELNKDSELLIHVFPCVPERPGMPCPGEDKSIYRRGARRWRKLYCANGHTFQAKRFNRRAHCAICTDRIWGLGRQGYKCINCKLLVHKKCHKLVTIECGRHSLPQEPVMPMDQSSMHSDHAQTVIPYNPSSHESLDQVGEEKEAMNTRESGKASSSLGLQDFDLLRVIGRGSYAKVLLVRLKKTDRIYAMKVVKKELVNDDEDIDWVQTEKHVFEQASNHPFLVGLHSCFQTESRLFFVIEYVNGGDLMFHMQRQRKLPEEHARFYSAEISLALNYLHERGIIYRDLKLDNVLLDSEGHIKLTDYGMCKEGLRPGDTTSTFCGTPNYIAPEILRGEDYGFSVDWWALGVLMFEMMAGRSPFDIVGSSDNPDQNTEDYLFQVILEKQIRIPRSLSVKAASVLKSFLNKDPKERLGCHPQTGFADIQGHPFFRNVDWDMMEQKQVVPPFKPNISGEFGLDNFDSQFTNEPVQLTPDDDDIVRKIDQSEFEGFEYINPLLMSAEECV
Nature of the test: Selectivity interaction (KinomeScan (DiscoverX)) EUB0001079a PRKCI. The settings on record: at 1 µM.

The target of test [11] is Sigma intracellular receptor 2 (Homo sapiens) (UniProt Q5BJF2). Kind of test: Selectivity interaction (GPCR panel (PDSP screen)) EUB0001079a TMEM97. The note with it: at 10 µM.
Sigma intracellular receptor 2 (Homo sapiens), sequence (Q5BJF2 whole entry): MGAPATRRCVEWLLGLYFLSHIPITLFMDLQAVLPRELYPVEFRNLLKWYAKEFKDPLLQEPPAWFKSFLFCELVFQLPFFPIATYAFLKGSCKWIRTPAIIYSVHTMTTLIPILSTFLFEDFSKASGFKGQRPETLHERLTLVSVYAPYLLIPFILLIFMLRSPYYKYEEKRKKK

Dual specificity protein kinase CLK2, sequence (P49760 whole entry): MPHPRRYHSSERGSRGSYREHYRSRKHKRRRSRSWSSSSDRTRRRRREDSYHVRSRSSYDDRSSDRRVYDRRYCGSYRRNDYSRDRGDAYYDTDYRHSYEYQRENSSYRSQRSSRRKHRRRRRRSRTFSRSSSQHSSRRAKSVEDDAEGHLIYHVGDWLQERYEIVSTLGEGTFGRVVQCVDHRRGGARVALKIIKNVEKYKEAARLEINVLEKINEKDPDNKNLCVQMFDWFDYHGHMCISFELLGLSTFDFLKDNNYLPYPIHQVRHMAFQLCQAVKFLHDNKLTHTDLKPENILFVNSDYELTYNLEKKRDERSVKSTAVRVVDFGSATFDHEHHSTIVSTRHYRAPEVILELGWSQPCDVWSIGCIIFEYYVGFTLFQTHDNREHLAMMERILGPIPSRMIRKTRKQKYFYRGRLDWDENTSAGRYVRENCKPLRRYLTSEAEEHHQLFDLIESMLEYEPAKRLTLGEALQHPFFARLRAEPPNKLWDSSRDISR
Proto-oncogene tyrosine-protein kinase receptor Ret, sequence (P07949 whole entry): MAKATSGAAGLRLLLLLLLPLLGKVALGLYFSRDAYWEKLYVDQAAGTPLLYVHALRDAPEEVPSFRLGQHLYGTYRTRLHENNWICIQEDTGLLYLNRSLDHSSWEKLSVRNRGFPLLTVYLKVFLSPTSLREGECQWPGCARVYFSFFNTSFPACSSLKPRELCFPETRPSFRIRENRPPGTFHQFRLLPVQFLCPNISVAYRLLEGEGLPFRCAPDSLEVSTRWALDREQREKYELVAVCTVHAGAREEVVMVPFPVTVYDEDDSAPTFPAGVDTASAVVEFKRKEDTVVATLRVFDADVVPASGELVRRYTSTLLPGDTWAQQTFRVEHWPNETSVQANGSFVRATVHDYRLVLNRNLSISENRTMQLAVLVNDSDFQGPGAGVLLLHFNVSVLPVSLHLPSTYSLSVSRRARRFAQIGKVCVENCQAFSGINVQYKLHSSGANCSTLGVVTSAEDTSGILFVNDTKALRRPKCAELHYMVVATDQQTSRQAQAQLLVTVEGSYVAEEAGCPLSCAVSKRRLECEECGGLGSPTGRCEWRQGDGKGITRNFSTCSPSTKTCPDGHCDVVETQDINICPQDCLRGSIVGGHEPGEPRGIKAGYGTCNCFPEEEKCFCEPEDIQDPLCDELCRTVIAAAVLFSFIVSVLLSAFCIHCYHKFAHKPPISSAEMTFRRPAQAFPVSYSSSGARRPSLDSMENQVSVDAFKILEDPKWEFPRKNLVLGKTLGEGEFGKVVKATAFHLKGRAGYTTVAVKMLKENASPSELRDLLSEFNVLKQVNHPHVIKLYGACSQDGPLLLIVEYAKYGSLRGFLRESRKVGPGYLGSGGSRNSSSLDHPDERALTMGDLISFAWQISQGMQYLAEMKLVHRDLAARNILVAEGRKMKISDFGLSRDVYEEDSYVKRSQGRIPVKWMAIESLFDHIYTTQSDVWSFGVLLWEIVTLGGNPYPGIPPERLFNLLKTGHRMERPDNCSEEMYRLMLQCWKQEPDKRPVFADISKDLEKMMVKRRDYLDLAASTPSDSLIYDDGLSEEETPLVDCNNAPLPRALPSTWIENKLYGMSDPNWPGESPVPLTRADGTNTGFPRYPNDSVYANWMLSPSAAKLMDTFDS
Death-associated protein kinase 3 (Homo sapiens), sequence (O43293 whole entry, looked up): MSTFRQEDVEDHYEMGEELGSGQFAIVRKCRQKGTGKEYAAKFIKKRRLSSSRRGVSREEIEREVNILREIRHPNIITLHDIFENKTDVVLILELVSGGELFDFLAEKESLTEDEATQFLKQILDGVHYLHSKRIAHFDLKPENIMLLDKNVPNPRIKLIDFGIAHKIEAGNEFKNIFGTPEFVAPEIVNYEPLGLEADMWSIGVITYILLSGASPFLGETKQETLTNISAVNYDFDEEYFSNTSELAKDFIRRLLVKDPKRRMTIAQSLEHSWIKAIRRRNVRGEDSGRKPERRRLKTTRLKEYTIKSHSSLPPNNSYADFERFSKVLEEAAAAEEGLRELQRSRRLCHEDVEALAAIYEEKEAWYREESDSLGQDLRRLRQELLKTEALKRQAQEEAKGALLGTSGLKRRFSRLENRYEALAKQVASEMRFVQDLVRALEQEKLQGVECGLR
Misshapen-like kinase 1, sequence (Q8N4C8 whole entry, looked up): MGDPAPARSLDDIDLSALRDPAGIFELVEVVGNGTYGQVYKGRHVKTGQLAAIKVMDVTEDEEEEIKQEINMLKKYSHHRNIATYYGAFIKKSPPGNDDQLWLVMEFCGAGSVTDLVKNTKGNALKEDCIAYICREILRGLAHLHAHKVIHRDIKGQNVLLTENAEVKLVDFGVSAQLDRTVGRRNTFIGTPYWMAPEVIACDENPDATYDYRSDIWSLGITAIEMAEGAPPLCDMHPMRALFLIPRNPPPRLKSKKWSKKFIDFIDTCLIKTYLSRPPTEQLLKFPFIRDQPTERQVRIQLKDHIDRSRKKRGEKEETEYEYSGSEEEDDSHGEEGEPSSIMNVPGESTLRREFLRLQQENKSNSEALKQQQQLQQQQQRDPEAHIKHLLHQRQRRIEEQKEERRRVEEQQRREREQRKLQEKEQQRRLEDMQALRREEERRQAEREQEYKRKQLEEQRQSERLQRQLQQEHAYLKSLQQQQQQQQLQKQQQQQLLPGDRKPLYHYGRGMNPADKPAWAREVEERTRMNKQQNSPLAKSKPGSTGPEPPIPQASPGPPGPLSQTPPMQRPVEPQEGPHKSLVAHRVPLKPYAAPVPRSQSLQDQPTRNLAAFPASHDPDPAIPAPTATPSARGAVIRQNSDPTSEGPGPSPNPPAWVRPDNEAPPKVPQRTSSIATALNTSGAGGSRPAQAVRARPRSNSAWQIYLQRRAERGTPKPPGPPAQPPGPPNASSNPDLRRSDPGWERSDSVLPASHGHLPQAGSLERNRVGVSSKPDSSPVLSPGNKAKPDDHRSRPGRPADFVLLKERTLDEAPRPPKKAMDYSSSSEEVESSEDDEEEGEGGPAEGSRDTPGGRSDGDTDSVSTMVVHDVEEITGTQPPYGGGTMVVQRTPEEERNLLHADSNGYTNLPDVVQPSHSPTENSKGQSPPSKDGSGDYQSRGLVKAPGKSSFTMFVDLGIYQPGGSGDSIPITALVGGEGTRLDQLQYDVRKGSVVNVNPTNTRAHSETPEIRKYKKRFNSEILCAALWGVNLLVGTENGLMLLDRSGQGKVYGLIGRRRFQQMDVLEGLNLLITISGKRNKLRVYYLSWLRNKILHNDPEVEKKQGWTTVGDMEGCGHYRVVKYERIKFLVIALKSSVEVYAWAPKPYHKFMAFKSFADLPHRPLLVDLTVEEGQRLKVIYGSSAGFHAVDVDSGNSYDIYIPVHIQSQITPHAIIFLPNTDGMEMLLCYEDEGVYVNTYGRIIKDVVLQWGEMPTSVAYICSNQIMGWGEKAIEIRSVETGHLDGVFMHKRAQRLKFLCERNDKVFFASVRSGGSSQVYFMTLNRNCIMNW
Calcium/calmodulin-dependent protein kinase type II subunit beta (Homo sapiens), sequence (Q13554 whole entry): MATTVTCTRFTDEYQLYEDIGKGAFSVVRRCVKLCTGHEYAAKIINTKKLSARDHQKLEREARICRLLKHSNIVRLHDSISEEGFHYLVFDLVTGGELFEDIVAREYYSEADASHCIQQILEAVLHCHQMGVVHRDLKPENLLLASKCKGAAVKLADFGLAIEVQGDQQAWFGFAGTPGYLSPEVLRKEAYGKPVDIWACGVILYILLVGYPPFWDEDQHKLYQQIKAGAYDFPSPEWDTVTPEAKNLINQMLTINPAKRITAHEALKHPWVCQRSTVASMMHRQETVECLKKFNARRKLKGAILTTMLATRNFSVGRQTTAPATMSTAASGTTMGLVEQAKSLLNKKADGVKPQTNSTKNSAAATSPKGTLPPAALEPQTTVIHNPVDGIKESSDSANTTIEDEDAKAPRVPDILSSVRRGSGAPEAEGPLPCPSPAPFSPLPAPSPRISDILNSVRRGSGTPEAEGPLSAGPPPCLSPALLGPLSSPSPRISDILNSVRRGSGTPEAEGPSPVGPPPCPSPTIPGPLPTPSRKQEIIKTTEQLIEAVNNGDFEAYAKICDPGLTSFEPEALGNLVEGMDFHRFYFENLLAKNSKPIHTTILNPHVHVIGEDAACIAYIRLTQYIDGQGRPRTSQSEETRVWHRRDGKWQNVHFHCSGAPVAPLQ

In the case of `Cn1cc(-n2cnc3c(NCc4nc5cc(Cl)c(Cl)cc5[nH]4)nc(N4CCOCC4)nc32)cn1`, the % of control in test [1] was -3.73%.
For the compound `COCC(=O)NC/C=C/c1ccc2ncnc(Nc3ccc(Oc4ccc(C)nc4)c(C)c3)c2c1` [CP-724714], the % of control worked out at 100% in test [2] and 92% in [3].
As to `CC(=O)c1cc(-c2ccccc2OCC2CC2)c2ncccn12`, in test [4], the % of control came out at 118%.
As to `CN(C)CC#Cc1ccc2[nH]c3c(c2c1)-c1nc(N)ncc1CCC3`, the IC50 (usually the concentration needed to halve the response being measured) in test [5] was 290 nM.
In the case of `Cc1cc([C@@H](C)Nc2ccccc2C(=O)O)c2nc(N3CCOCC3)cc(=O)n2c1` [AZD-6482], the % of control in test [6] was 83%.
`Cc1cnc(Nc2ccc(F)cc2Cl)nc1-c1c[nH]c(C(=O)N[C@H](CO)c2cccc(Cl)c2)c1`: the % of inhibition in test [7] was found to be 18%.
With `CC[C@@H]1[C@H](F)C(=O)N[C@@H]1COc1nccc2cc(C(N)=O)c(OC)cc12` [ZIMLOVISERTIB], the % of inhibition in [8] stood at 58.6%.
Take `C=CC(=O)Nc1cc(-n2c(=O)ccc3cnc4ccc(-c5ccc(NS(C)(=O)=O)cc5)cc4c32)ccc1C`: the % of control in [9] (at 1 µM) is 87%; in test [9] (at 10 µM), 100%.
As for `Nc1cnc(N2CCc3cc(S(=O)(=O)Nc4c(F)cc(Cl)cc4F)cc(N4CCCC4=O)c32)nc1` [TP-020n], the % of control in [10] was 100%. Further, the % of inhibition in test [11] is -12%.

For the origin of these results see ChEMBL document CHEMBL5465560, “Selectivity Literature for EUbOPEN Chemogenomic Library” (2024).
